From the supplement of paper PMC13380429

Experiments:
Conditions in all cases: 72 h
[1] = tested on: Caco-2; assay: cell viability relative to DMSO; higher = less toxic
[2] = tested on: Calu-3; assay: as above
[3] = tested on: HepG2; assay: as above
[4] = tested on: U2OS; assay: as above
[5] = tested on: Vero E6; assay: as above
[6] = tested on: Calu-3; assay: relative viability EC50 (midpoint between 100% and the lowest measured viability); higher = less toxic
[7] = tested on: U2OS; assay: as above
[8] = tested on: Vero E6; assay: as above
[9] = tested on: Caco-2; assay: drug sensitivity score (DSS) for viability; higher = more toxic; extreme values may be limits of the assay
[10] = tested on: Calu-3; assay: as above
[11] = tested on: HepG2; assay: as above
[12] = tested on: U2OS; assay: as above
[13] = tested on: Vero E6; assay: as above
[14] = tested on: HepG2; assay: relative viability EC50 (midpoint between 100% and the lowest measured viability); higher = less toxic
[15] = tested on: Caco-2; assay: as above

SMILES | cell viability ([1]; 1 nM) [%] | cell viability ([1]; 10 nM) [%] | cell viability ([1]; 100 nM) [%] | cell viability ([1]; 1000 nM) [%] | cell viability ([1]; 10000 nM) [%] | cell viability ([2]; 1 nM) [%] | cell viability ([2]; 10 nM) [%] | cell viability ([2]; 100 nM) [%] | cell viability ([2]; 1000 nM) [%] | cell viability ([2]; 10000 nM) [%] | cell viability ([3]; 1 nM) [%] | cell viability ([3]; 10 nM) [%] | cell viability ([3]; 100 nM) [%] | cell viability ([3]; 1000 nM) [%] | cell viability ([3]; 10000 nM) [%] | cell viability ([4]; 1 nM) [%] | cell viability ([4]; 10 nM) [%] | cell viability ([4]; 100 nM) [%] | cell viability ([4]; 1000 nM) [%] | cell viability ([4]; 10000 nM) [%] | cell viability ([5]; 1 nM) [%] | cell viability ([5]; 10 nM) [%] | cell viability ([5]; 100 nM) [%] | cell viability ([5]; 1000 nM) [%] | cell viability ([5]; 10000 nM) [%] | relative viability EC50 [6] [µM] | relative viability EC50 [7] [µM] | relative viability EC50 [8] [µM] | drug sensitivity score [9] | drug sensitivity score [10] | drug sensitivity score [11] | drug sensitivity score [12] | drug sensitivity score [13] | relative viability EC50 [14] [µM] | relative viability EC50 [15] [µM]
C[C@H]1O[C@@H](n2cc(F)c(=O)[nH]c2=O)[C@H](O)[C@@H]1O [doxifluridine] | 82.5 | 106 | 93.3 | 99.3 | 65.6 | 98.6 | 116 | 91.3 | 98.9 | 90.9 | 96.6 | 96.1 | 76.3 | 108 | 56.6 | 99.9 | 99.4 | 100 | 101 | 90.6 | 108 | 96.1 | 103 | 105 | 87.5 | > 10 | > 10 | > 10 | 1.7 | 0 | 1.8 | 0 | 0 | – | –
CCN1CCN(c2cc3c(cc2F)c(=O)c(C(=O)O)cn3C2CC2)CC1 [enrofloxacin] | – | – | – | – | – | – | – | – | – | – | – | – | – | – | – | – | – | – | – | – | – | – | – | – | – | – | – | – | – | 0 | 0 | 0 | 0 | – | –
Oc1ccc([C@H]2COc3cc(O)ccc3C2)cc1 [equol] | – | – | – | – | – | 97.2 | 111 | 99.2 | 92.6 | 91.2 | 94.2 | 105 | 110 | 94.8 | 97.3 | 98.5 | 103 | 97.9 | 102 | 99.6 | 98.6 | 102 | 96.2 | 95.5 | 96.6 | > 10 | > 10 | > 10 | – | 0 | 0 | 0 | 0 | > 10 | –
COC(=O)Nc1nc2cc(C(=O)c3ccc(F)cc3)ccc2[nH]1 [flubendazole] | 93 | 96.7 | 101 | 87.3 | 54.6 | 94.2 | 87.9 | 98.8 | 97.6 | 72.3 | 96.8 | 95.7 | 92.4 | 63.4 | 40.4 | 98.2 | 107 | 102 | 95.4 | 54.6 | 94.9 | 102 | 92.4 | 79 | 41.8 | – | – | 1.38 | 4.3 | 1.5 | 7.9 | 3.1 | 5.5 | 0.619 | –
Cc1cnc(C(=O)NCCc2ccc(S(=O)(=O)NC(=O)NC3CCCCC3)cc2)cn1 [glipizide] | – | – | – | – | – | – | – | – | – | – | – | – | – | – | – | – | – | – | – | – | – | – | – | – | – | – | – | – | – | 0 | 0 | 0 | 0 | – | –
c1coc(CNc2ncnc3[nH]cnc23)c1 [kinetin] | 111 | 104 | 106 | 98.9 | 96.6 | 95.7 | 100 | 101 | 98.4 | 99.3 | 110 | 108 | 99 | 98.7 | 109 | – | – | – | – | – | – | – | – | – | – | > 10 | – | – | 0 | 0 | 0 | – | – | > 10 | > 10
Cc1ccc(NC(=O)C2(c3ccc4c(c3)OC(F)(F)O4)CC2)nc1-c1cccc(C(=O)O)c1 [lumacaftor] | 106 | 103 | 106 | 92.3 | 93.8 | 113 | 103 | 101 | 98.6 | 108 | – | – | – | – | – | – | – | – | – | – | – | – | – | – | – | > 10 | – | – | 0 | 0 | – | – | – | – | > 10
CN1CCN(c2c(F)cc3c(=O)c(C(=O)O)cn4c3c2SCC4)CC1 [rufloxacin] | 95.1 | 105 | 93.9 | 91.7 | 73.8 | 92.1 | 103 | 97.5 | 84.4 | 101 | 98.9 | 99.5 | 104 | 103 | 92.2 | 99.8 | 100 | 94.7 | 104 | 96.8 | 99.9 | 101 | 96.4 | 101 | 95.7 | > 10 | > 10 | > 10 | 1.7 | 0 | 0 | 0 | 0 | > 10 | –
CC(=O)c1ccc2c(c1)C(=O)C1(CC1)O2 [spizofurone] | – | – | – | – | – | – | – | – | – | – | – | – | – | – | – | – | – | – | – | – | – | – | – | – | – | – | – | – | – | 0 | 0 | 0 | 0 | – | –
COc1ccc(-n2nc(CCC(=O)N(C)O)cc2-c2ccc(Cl)cc2)cc1 [tepoxalin] | 103 | 112 | 116 | 99.4 | 59.8 | 97.5 | 110 | 102 | 106 | 110 | 107 | 106 | 96.4 | 96.6 | 73.8 | 97.1 | 95.7 | 96.7 | 94.6 | 61.8 | 98.2 | 99.9 | 99.5 | 99.9 | 64.7 | > 10 | – | – | 2.1 | 0 | 1.6 | 2.8 | 1.7 | – | –
